This passage reports IC50, inhibition and Ratio results from ChEMBL document CHEMBL1130589, “Synthesis and evaluation of a novel series of phosphodiesterase IV inhibitors. A potential treatment for asthma” (Bioorg Med Chem Lett, 1998).

A value given as a limit tells only on which side of the number the result lay.

For orientation: IC50 means the concentration that inhibits the measured activity by half. The low end stands for greater potency, the high end for weaker potency. For orientation: inhibition means the change of the read-out against control, counted positive when it falls. Low values mean a weak effect, high ones a strong effect.

Type in all cases: protein assay
Assay [1] concerns the target T1, Phosphodiesterase 4 (Homo sapiens, UniProt P27815+Q08499+Q07343+Q08493). Nature of the assay: Inhibition of phosphodiesterase 4.
For assay [2], the target named is T1, Phosphodiesterase 4. Nature of the assay: (§1) Inhibition of Rolipram binding to PDE4 at 1 uM.
For assay [3], the target named is T1, Phosphodiesterase 4. The description is as §1. This is another data set of the same source.
Assay [4] addresses T1, Phosphodiesterase 4. Nature of the assay: Relative inhibition of phosphodiesterase 4 activity and Rolipram binding to PDE4.
In assay [5] the target is T1, Phosphodiesterase 4. Nature of the assay: Inhibition of Rolipram binding to PDE4.
Assay [6] concerns the target T1, Phosphodiesterase 4. Nature of the assay: Inhibition of Rolipram binding to PDE4 at 10 uM.
Assay [7] has as its target T1, Phosphodiesterase 4. Nature of the assay: Inhibition of Rolipram binding to PDE4 at 100 uM.

`CCn1cc(C(=O)N/N=C/c2ccccc2Cl)c(=O)c2cc(C(F)(F)F)ccc21`: the half-maximal inhibitory concentration (IC50) amounted to 1100 nM in assay [1] and 10000 nM in assay [2].

`CCn1cc(C(=O)NCCc2ccncc2)c(=S)c2cc(C(F)(F)F)ccc21` registered an IC50 in assay [1] of 460 nM. Further, in assay [3], the inhibition came out at 15%. Moreover, the Ratio in assay [4] was less than 0.46.

For `CCCn1cc(C(=O)NCCc2ccncc2)c(=O)c2cc(C(F)(F)F)ccc21.Cl`, the results for the IC50 in assay [1] and in assay [5] were 1700 nM and 10000 nM, respectively. For the same molecule, the Ratio in assay [4] turned out to be 0.17.

As to `CCn1cc(C(=O)NC2CCc3cc(OC)c(OC)cc32)c(=O)c2cc(C(F)(F)F)ccc21` (configuration not stated), the IC50 in assay [1] stood at 900 nM. This molecule also registered an inhibition in assay [3] of 22%. Besides, the Ratio in assay [4] is less than 0.9.

`CCn1cc(C(=O)NCCc2ccncc2)c(=O)c2cc3c(cc21)OCO3` gave an IC50 in assay [1] of 23000 nM. Also, the Ratio in assay [4] stood at 1. The molecule also showed an inhibition in assay [6] of 31%.

For `CCn1cc(C(=O)NC2CCc3cc(NC(C)=O)ccc32)c(=O)c2cnc(N3CCCC3)nc21` (configuration not stated), in assay [1], the half-inhibitory concentration (IC50) amounted to 1800 nM. The molecule also returned an inhibition in assay [3] of 17%. In addition, the Ratio in assay [4] was less than 1.

In assay [1], `CC1CCc2cc(F)cc3c(=O)c(C(=O)NCCc4ccncc4)cn1c23` (configuration not stated) showed an IC50 of 7000 nM. For the same molecule, the Ratio in assay [4] is less than 0.7. For the same molecule, in assay [6], the inhibition came to 8%.

Turning to `CCn1cc(C(=O)NCCc2ccccc2)c(=O)c2cc(C(F)(F)F)ccc21`, the IC50 in assay [1] came out at 600 nM. The molecule further registered an inhibition in assay [3] of 8%. The Ratio in assay [4] is less than 0.6.

Molecule `CCn1cc(C(=O)NCCc2ccncc2)c(=O)c2cnc(N3CCCC3)nc21` gave a 50% inhibitory concentration (IC50) in assay [1] of 1200 nM. Further, the inhibition in assay [3] was determined as 11%. In addition, the Ratio in assay [4] was less than 1.

For `CCn1cc(C(=O)NCCc2ccncc2)c(=O)c2cc(C(F)(F)F)ccc21`, the IC50 in assay [1] was determined as 1500 nM. Also, the Ratio in assay [4] is less than 0.15. In assay [6], this molecule registered an inhibition of 24%.

The molecule `CCn1cc(C(=O)N(C)CCc2ccccc2)c(=O)c2cc(C(F)(F)F)ccc21` had an IC50 in assay [1] of 49000 nM. Further, in assay [7], the inhibition was found to be 15%. Further, the Ratio in assay [4] was less than 0.49.
